{"source": "paper PMC10208956", "about": "“Microbial peptides activate tumour-infiltrating lymphocytes in glioblastoma” (Nature, 2023)", "key": {"[1]": {"tested_on": "bacteria/microbiota-reactive CFSEdim CD4+ TILs", "assay": "Proliferation of expanded CFSEdim CD4+ TILs that responded to the bacteria/microbiota peptide pool", "type": "cell-based, human", "details": "5 days; 4 replicate wells; Fig. 4d"}, "[2]": {"tested_on": "bulk TILs (patient 1635WI)", "assay": "Cytokine and chemokine secretion of bulk TILs stimulated with IPdBPs", "type": "cell-based, human", "parameters": "key to CD40 Ligand / Flt-3 Ligand / GM-CSF / Granzyme B / IFN-α / IFN-γ / IL-1rα / IL-1α / IL-1β / IL-2 / IL-3 / IL-4 / IL-5 / IL-6 / IL-7 / IL-10 / IL-12p70 / IL-13 / IL-15 / IL-17A / IL-33 / TNF-α / RANTES: pg/mL, negative-control amount subtracted; CXCL2/GROβ / CXCL10/IP-10 / CCL2/MCP-1 / CCL3/MIP-1α / CCL4/MIP-1β: unit not given beside the values", "details": "secretion by bulk TILs after peptide stimulation; sheet 1e", "text": "Fig. 1 Elution of HLA class II-presented bacterial peptides from 19 glioblastomas and the stimulatory effect of IPdBPs on bulk TILs. a, Schematic of the immunopeptidome analyses of glioblastoma tissue, from which eluted peptides were annotated using the UniProt bacteria database (1). TILs or peripheral memory T cells were stimulated with IPdBPs (2 and 3). LC–MS, liquid chromatography–mass spectrometry; PBMC, peripheral blood mononuclear cell. The images in panel a were created using BioRender (https://biorender.com). b, Number of unique IPdBPs in patients with glioblastoma (n = 19) (data from patient 1635WI contains both primary and recurrent tumours together), with 344 unique IPdBPs identified (left). These peptides originated from 255 and 199 unique proteins and bacteria, respectively (3 technical replicates). […] As a control, peptidome data were also annotated using human protein database to identify eluted self-peptides. As shown, most of HLA class II-bound peptides are self-(human) peptides. IPdBPs of primary (bottom left, n = 18) and recurrent (bottom right, n = 23) tumours were separately annotated to their source bacteria at the phylum level. d, Bulk TILs (patient 1635WI) were stimulated with IPdBPs (See Supplementary Table 8), each in five replicate wells, and proliferation was measured after 5 days via ^3H-thymidine incorporation. […] The data are expressed as the mean value of all wells ± s.e.m. SIN3A* peptide was used as a positive control as TILs recognize this tumour antigen. T cells with APCs without any stimuli were used as a negative control. e, Heatmap of cytokine and chemokine secretion of TILs stimulated with three IPdBPs, which weakly stimulated proliferation. The secretion of each cytokine and chemokine was calculated by subtracting the corresponding cytokine and chemokine amount (pg ml^−1) of the negative control. TILs with APCs without any stimuli were used as a negative control. Also see Extended Data Fig. 1. Source data\nSupernatants from each experiment were harvested a day before adding thymidine and frozen at −20 °C. Cytokines were measured using ELISA for human IFNγ ELISA MAX (BioLegend), human GM-CSF DuoSet ELISA (R&D Systems) and bead-based assays. A Synergy H1 hybrid multi-mode reader (Agilent) was used to measure the absorbance. The LEGENDplex Multi-analyte Flow Assay kit (BioLegend) is a 13-plex human TH cytokine panel, which includes IFNγ, TNF, IL-2, IL-4, IL-5, IL-6, IL-9, IL-10, IL-13, IL-17A, IL-17F, IL-21 and IL-22. […] LSR Fortessa Flow Cytometer (BD Biosciences) was used to measure cytokines, and data were analysed using FlowJo (Tree Star). The Human XL Cytokine Luminex Performance Assay Fixed Panel (R&D Systems) contains 45 analytes covering a broad range of various chemokines and cytokines."}, "[3]": {"tested_on": "TCC88", "details": "for Proliferation (SI), peptide dose titration: sheet f"}, "[4]": {"tested_on": "TCC75", "assay": "Cytokine/chemokine secretion of TCC75", "type": "cell-based, human", "parameters": "IL-1α / IL-1β / IL-2 / IL-3 / IL-4 / IL-5 / IL-6 / IL-7 / IL-10 / IL-13 / IL-15 / IL-17A / IL-33 / TNF-α: unit not given here", "details": "TCC75, sheet e"}}, "note": "Like-named read-outs stand apart in the source and are kept apart here.", "data": [{"substance": "Ac-QPVEFNHAIHYVN-NH2 [SIN3A*]", "values": [{"measurement": "recognition by CD4+ TILs pre-stimulated with the bacteria/microbiota peptide pool, by proliferation and/or GM-CSF secretion (in words)", "setting": "[1]", "value": "recognized"}, {"measurement": "CCL2/MCP-1", "setting": "[2]", "value": 2816.44}, {"measurement": "CCL3/MIP-1α", "setting": "[2]", "value": 29.38}, {"measurement": "CCL4/MIP-1β", "setting": "[2]", "value": 288.41}, {"measurement": "CCL11/Eotaxin", "setting": "[2]", "value": 0}, {"measurement": "CCL19/MIP-3β", "setting": "[2]", "value": 3.84}, {"measurement": "CCL20/MIP-3α", "setting": "[2]", "value": 5.69}, {"measurement": "CD40 Ligand", "setting": "[2]", "value": 1225.7}, {"measurement": "CXCL1/GROα", "setting": "[2]", "value": 401.05}, {"measurement": "CXCL2/GROβ", "setting": "[2]", "value": 208.21}, {"measurement": "CXCL8/IL-8", "setting": "[2]", "value": 3621.56}, {"measurement": "CXCL10/IP-10", "setting": "[2]", "value": 192.55}, {"measurement": "Flt-3 Ligand", "setting": "[2]", "value": 87.97}, {"measurement": "GM-CSF", "setting": "[2]", "value": 322.89}, {"measurement": "Granzyme B", "setting": "[2]", "value": 136.59}, {"measurement": "IFN-α", "setting": "[2]", "value": 1.52}, {"measurement": "IFN-γ", "setting": "[2]", "value": 41.34}, {"measurement": "IL-1rα", "setting": "[2]", "value": 1593.54}, {"measurement": "IL-1α", "setting": "[2]", "value": 6.01}, {"measurement": "IL-1β", "setting": "[2]", "value": 5.99}, {"measurement": "IL-2", "setting": "[2]", "value": 5.92}, {"measurement": "IL-3", "setting": "[2]", "value": 55.24}, {"measurement": "IL-4", "setting": "[2]", "value": 3.08}, {"measurement": "IL-5", "setting": "[2]", "value": 16.46}, {"measurement": "IL-6", "setting": "[2]", "value": 23.1}, {"measurement": "IL-7", "setting": "[2]", "value": 0.95}, {"measurement": "IL-10", "setting": "[2]", "value": 62.69}, {"measurement": "IL-12p70", "setting": "[2]", "value": 0}, {"measurement": "IL-13", "setting": "[2]", "value": 67.23}, {"measurement": "IL-15", "setting": "[2]", "value": 2.11}, {"measurement": "IL-17A", "setting": "[2]", "value": 2.07}, {"measurement": "IL-17E/IL-25", "setting": "[2]", "value": 0}, {"measurement": "IL-33", "setting": "[2]", "value": 6.61}, {"measurement": "RANTES", "setting": "[2]", "value": 135}, {"measurement": "TNF-α", "setting": "[2]", "value": 366.07}, {"measurement": "SI: TCC88", "setting": "[3]; 3 h", "value": 20.6}, {"measurement": "Proliferation (SI), peptide dose titration", "setting": "[3]; peptide concentration 10-1 (unit not given), replicate 1", "value": 42.2997}, {"measurement": "Proliferation (SI), peptide dose titration", "setting": "[3]; peptide concentration 10-1 (unit not given), replicate 2", "value": 45.1904}, {"measurement": "Proliferation (SI), peptide dose titration", "setting": "[3]; peptide concentration 10-1 (unit not given), replicate 3", "value": 49.4521}, {"measurement": "Proliferation (SI), peptide dose titration", "setting": "[3]; peptide concentration 10-2 (unit not given), replicate 1", "value": 1.135}, {"measurement": "Proliferation (SI), peptide dose titration", "setting": "[3]; peptide concentration 10-2 (unit not given), replicate 2", "value": 0.9523}, {"measurement": "Proliferation (SI), peptide dose titration", "setting": "[3]; peptide concentration 10-2 (unit not given), replicate 3", "value": 1.168}, {"measurement": "Proliferation (SI), peptide dose titration", "setting": "[3]; peptide concentration 10-3 (unit not given), replicate 1", "value": 0.8172}, {"measurement": "Proliferation (SI), peptide dose titration", "setting": "[3]; peptide concentration 10-3 (unit not given), replicate 2", "value": 0.7497}, {"measurement": "Proliferation (SI), peptide dose titration", "setting": "[3]; peptide concentration 10-3 (unit not given), replicate 3", "value": 0.8105}, {"measurement": "Proliferation (SI), peptide dose titration", "setting": "[3]; peptide concentration printed 10, fifth line r7 (unit not printed), replicate 1", "value": 28.2921}, {"measurement": "Proliferation (SI), peptide dose titration", "setting": "[3]; peptide concentration printed 10, fifth line r7 (unit not printed), replicate 2", "value": 32.0878}, {"measurement": "Proliferation (SI), peptide dose titration", "setting": "[3]; peptide concentration printed 10, fifth line r7 (unit not printed), replicate 3", "value": 32.0203}, {"measurement": "Proliferation (SI), peptide dose titration", "setting": "[3]; peptide concentration printed 10, fourth line r6 (unit not printed), replicate 1", "value": 44.2381}, {"measurement": "Proliferation (SI), peptide dose titration", "setting": "[3]; peptide concentration printed 10, fourth line r6 (unit not printed), replicate 2", "value": 56.0371}, {"measurement": "Proliferation (SI), peptide dose titration", "setting": "[3]; peptide concentration printed 10, fourth line r6 (unit not printed), replicate 3", "value": 57.6243}, {"measurement": "CCL2/MCP-1", "setting": "[4]", "value": 15.01}, {"measurement": "CCL3/MIP-1α", "setting": "[4]", "value": 1946.52}, {"measurement": "CCL4/MIP-1β", "setting": "[4]", "value": 6778.88}, {"measurement": "CCL11/Eotaxin", "setting": "[4]", "value": 4.69}, {"measurement": "CCL19/MIP-3β", "setting": "[4]", "value": 3.33}, {"measurement": "CCL20/MIP-3α", "setting": "[4]", "value": 6.39}, {"measurement": "CD40 Ligand", "setting": "[4]", "value": 608.52}, {"measurement": "CXCL1/GROα", "setting": "[4]", "value": 9.62}, {"measurement": "CXCL2/GROβ", "setting": "[4]", "value": 35.12}, {"measurement": "CXCL8/IL-8", "setting": "[4]", "value": 0}, {"measurement": "CXCL10/IP-10", "setting": "[4]", "value": 40.51}, {"measurement": "Flt-3 Ligand", "setting": "[4]", "value": 43.9}, {"measurement": "Fractalkine", "setting": "[4]", "value": 194.12}, {"measurement": "GM-CSF", "setting": "[4]", "value": 3130.41}, {"measurement": "Granzyme B", "setting": "[4]", "value": 1085.42}, {"measurement": "IFN-α", "setting": "[4]", "value": 4.79}, {"measurement": "IFN-γ", "setting": "[4]", "value": 479.21}, {"measurement": "IL-1rα", "setting": "[4]", "value": 0}, {"measurement": "IL-1α", "setting": "[4]", "value": 6.12}, {"measurement": "IL-1β", "setting": "[4]", "value": 7.45}, {"measurement": "IL-2", "setting": "[4]", "value": 555.39}, {"measurement": "IL-3", "setting": "[4]", "value": 138.37}, {"measurement": "IL-4", "setting": "[4]", "value": 73.09}, {"measurement": "IL-5", "setting": "[4]", "value": 13.91}, {"measurement": "IL-6", "setting": "[4]", "value": 139.59}, {"measurement": "IL-7", "setting": "[4]", "value": 1.11}, {"measurement": "IL-10", "setting": "[4]", "value": 887.25}, {"measurement": "IL-12p70", "setting": "[4]", "value": 22.92}, {"measurement": "IL-13", "setting": "[4]", "value": 233.15}, {"measurement": "IL-15", "setting": "[4]", "value": 1.05}, {"measurement": "IL-17A", "setting": "[4]", "value": 0.99}, {"measurement": "IL-17E/IL-25", "setting": "[4]", "value": 3.22}, {"measurement": "IL-33", "setting": "[4]", "value": 3.72}, {"measurement": "RANTES", "setting": "[4]", "value": 1598.25}, {"measurement": "TNF-α", "setting": "[4]", "value": 5169.38}]}]}
